# Assay results reported in paper PMC2652632 (Biochemistry, 2008).
# Entries after “also recorded” stand apart in the source; their conditions may differ.
# Columns and labels:
# [1] = target: T1, human IDE (IDE-CF) (Homo sapiens, UniProt P14735, C110L/C171S/C178A/C257V/C414L/C573N/C590S/C789S/C812A/C819A/C904S/C966N/C974A); assay: Kinetic analysis of kinin degradation by IDE-CF; assay type: biochemical; settings: for kcat for degradation by IDE: IDE-CF, competition with 0.5 μM substrate V, 50 mM potassium phosphate pH 7.3, 37 °C
# [2] = target: T1, human IDE (IDE-CF); assay: Mass spectrometry analysis of kinins degradation by IDE-CF; assay type: biochemical; settings: for major cleavage site: 50 mM potassium phosphate pH 7.3, MALDI-TOF and MS-MS
# [3] = tested on: IDE; settings: ref 16 (b4: ref 16, 17); cited from earlier work
# [4] = tested on: NEP; settings: cited from earlier work
# [5] = tested on: ACE; settings: cited from earlier work
# [6] = tested on: IDE-CF-4; assay: Sensitivity of IDE-CF-4 to NEM, GSNO and H2O2; assay type: biochemical, human; settings: for inhibition by GSNO / H2O2 (in words): IDE-CF-4, substrate V or FAβB
# [7] = tested on: IDE-CF-A819C; assay: Sensitivity of IDE-CF-A819C to NEM, GSNO and H2O2; assay type: biochemical, human; settings: for sensitivity to GSNO / H2O2 relative to IDE-WT (in words): IDE-CF-A819C compared to IDE-WT; for NEM sensitivity (in words): IDE-CF-A819C
# [8] = target: T2, IDE-WT (Homo sapiens, UniProt P14735); assay: Sensitivity of IDE-WT to NEM, GSNO and H2O2; assay type: biochemical; settings: for inactivation of IDE by NEM / H2O2 / GSNO (in words): substrates mimicking both Aβ and bradykinin
# [9] = tested on: IDE-CF-123; assay: Sensitivity of IDE-CF-123 to NEM, GSNO and H2O2; assay type: biochemical, human; settings: for inhibition by GSNO / H2O2 (in words): IDE-CF-123, substrate V or FAβB; for sensitivity to GSNO / H2O2 relative to IDE-WT (in words): IDE-CF-123 compared to IDE-WT
# [10] = tested on: IDE; settings: insulin; literature value, reference not given; cited from earlier work
# [11] = tested on: IDE; assay: Degradation of insulin and short substrates by IDE; assay type: biochemical; settings: insulin 100 nM vs kinins 4–7 mM
# [12] = tested on: 812C mutant of IDE; settings: single 812C mutant, only Ni-NTA purified; cited from earlier work
# [13] = target: T3, IDE-CF (Homo sapiens, UniProt P14735, C110L/C171S/C178A/C257V/C414L/C573N/C590S/C789S/C812A/C819A/C904S/C966N/C974A); assay: Sensitivity of cysteine-free IDE-CF to NEM, GSNO and H2O2; assay type: biochemical
# [14] = tested on: IDE M5; assay: NEM sensitivity of IDE mutant M5; assay type: biochemical, human; settings: IDE M5 (C789S/C819A/C904S/C966N), 0.2 and 1 mM NEM, 1 h, substrate V
# [15] = tested on: IDE M2; assay: NEM sensitivity of IDE mutant M2; assay type: biochemical, human; settings: IDE M2 (C789S/C904S/C966N), 0.2 and 1 mM NEM, 1 h, substrate V
# [16] = tested on: IDE-CF-A812C; assay: NEM sensitivity of IDE-CF-A812C; assay type: biochemical, human; settings: fully purified, 0.15, 0.6 and 2.5 mM NEM, 1 h, substrate V
# [17] = tested on: IDE M4; assay: NEM sensitivity of IDE mutant M4; assay type: biochemical, human; settings: IDE M4 (C789S/C904S/C966N/C974A), 0.2 and 1 mM NEM, 1 h, substrate V
# [18] = tested on: IDE M3; assay: NEM sensitivity of IDE mutant M3; assay type: biochemical, human; settings: IDE M3 (C812A/C819A/C904S/C966N), 0.2 and 1 mM NEM, 1 h, substrate V
# [19] = tested on: IDE; settings: cited from earlier work
# [20] = tested on: IDE-WT-C819A; assay: NEM sensitivity of IDE-WT-C819A; assay type: biochemical, human; settings: 0–1 mM NEM, substrate V, compared to IDE-CF4 and IDE-WT
# [21] = tested on: IDE M1; assay: NEM sensitivity of IDE mutant M1; assay type: biochemical, human; settings: IDE M1 (C904S/C966N), 0.2 and 1 mM NEM, 1 h, substrate V
# [22] = tested on: rat IDE; settings: cited from earlier work
# [23] = target: T3, IDE-CF; assay: Specific activity of IDE-CF with substrate V; assay type: biochemical; settings: 0.5 μM fluorogenic substrate V
# [24] = target: T2, IDE-WT; assay: Specific activity of IDE-WT with substrate V; assay type: biochemical; settings: 0.5 μM fluorogenic substrate V
# T1 sequence (P14735 whole entry C110L/C171S/C178A/C257V/C414L/C573N/C590S/C789S/C812A/C819A/C904S/C966N/C974A): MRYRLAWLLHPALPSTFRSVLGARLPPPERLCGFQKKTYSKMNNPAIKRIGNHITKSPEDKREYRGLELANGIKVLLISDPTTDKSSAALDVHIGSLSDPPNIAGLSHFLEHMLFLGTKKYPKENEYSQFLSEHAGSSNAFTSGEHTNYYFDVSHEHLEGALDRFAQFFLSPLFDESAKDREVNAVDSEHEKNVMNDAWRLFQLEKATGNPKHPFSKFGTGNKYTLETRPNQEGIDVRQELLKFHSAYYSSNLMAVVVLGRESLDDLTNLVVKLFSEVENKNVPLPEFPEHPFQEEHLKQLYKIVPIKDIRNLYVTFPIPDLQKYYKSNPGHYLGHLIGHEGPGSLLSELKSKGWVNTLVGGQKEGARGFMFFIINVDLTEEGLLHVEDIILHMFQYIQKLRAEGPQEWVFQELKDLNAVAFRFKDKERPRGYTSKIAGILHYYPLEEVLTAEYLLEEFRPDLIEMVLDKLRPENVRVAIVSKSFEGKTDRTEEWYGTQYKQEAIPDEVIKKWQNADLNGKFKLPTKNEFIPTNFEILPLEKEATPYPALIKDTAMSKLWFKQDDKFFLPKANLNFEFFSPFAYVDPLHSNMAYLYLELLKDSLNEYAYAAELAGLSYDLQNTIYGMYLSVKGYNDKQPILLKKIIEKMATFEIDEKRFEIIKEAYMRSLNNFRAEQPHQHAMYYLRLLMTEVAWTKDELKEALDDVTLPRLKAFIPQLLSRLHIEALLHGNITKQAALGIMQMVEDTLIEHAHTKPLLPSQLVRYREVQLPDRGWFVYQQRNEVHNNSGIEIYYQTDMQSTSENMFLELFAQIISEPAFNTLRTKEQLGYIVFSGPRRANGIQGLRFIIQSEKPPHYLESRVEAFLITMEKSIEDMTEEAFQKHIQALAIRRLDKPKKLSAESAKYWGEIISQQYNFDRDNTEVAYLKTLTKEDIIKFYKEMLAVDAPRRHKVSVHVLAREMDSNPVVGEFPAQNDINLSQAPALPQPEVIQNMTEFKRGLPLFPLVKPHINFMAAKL
# T3 sequence (P14735 whole entry C110L/C171S/C178A/C257V/C414L/C573N/C590S/C789S/C812A/C819A/C904S/C966N/C974A): as above
# T2 sequence (P14735 whole entry): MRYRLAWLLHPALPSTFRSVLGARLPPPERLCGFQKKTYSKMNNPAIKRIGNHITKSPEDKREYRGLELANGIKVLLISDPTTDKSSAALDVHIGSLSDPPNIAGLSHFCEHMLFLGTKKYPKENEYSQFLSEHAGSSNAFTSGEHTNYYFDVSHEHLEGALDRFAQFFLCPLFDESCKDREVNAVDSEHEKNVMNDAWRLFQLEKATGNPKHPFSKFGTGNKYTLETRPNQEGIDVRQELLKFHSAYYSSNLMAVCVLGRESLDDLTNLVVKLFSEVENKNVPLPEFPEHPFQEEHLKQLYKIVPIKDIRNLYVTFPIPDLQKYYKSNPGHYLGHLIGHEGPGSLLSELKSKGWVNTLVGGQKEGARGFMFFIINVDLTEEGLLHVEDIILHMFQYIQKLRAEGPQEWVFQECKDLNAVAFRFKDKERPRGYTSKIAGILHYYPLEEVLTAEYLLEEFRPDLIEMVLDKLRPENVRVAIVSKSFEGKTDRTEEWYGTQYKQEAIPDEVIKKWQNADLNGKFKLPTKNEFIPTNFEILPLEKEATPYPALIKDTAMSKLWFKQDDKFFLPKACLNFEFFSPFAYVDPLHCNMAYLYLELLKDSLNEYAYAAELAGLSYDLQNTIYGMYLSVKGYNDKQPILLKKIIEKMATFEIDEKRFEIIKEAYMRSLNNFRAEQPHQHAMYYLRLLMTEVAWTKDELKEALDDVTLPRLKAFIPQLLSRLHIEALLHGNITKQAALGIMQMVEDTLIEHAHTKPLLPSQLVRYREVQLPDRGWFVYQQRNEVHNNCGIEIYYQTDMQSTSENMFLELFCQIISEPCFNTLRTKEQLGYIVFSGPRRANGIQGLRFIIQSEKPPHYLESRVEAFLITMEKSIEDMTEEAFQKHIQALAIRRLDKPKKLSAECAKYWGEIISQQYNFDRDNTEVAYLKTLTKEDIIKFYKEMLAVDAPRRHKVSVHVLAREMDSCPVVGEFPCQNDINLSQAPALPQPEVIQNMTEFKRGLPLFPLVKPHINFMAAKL
compound,measurement,setting,value
"bradykinin: vasoactive nonapeptide hormone of the family of kinins, purchased from AnaSpec (RPPGFSPFR)",kcat for degradation by IDE,[1],"around 2,000 sec^−1"
same,affinity of IDE for kinins (in words),[1]; inferred from Km,low affinity
same,major cleavage site,[2]; 30 min incubation,at the Pro/Phe site; also recorded: between residues Pro^7 and Phe^8
same,minor cleavage site,"[2]; 30 min incubation, MALDI-TOF peak m/z 653.32, not confirmed by MS-MS",between residues Gly^4 and Phe^5
same,hydrolysis by IDE (in words),"[2]; purified recombinant human IDE, 30-minute incubation, MALDI-TOF",hydrolyzed after 30-minute incubation
same,activation of IDE (in words),[3],activator of IDE
same,cleavage of C-terminal di-peptide,[4],Same cleavage of the C-terminal di-peptide
same,cleavage of C-terminal di-peptide,[5],Same cleavage of the C-terminal di-peptide
Nc1ncnc2c1ncn2[C@@H]1O[C@H](COP(=O)(O)OP(=O)(O)OP(=O)(O)O)[C@@H](O)[C@H]1O [ATP],activation of IDE (in words),[3],can activate IDE
"N[C@@H](CCC(=O)N[C@@H](CSN=O)C(=O)NCC(=O)O)C(=O)O [GSNO, S-nitroso-glutathione]",inhibition by GSNO / H2O2 (in words),[6],relatively resistant
same,sensitivity to GSNO / H2O2 relative to IDE-WT (in words),[7],more sensitive
same,inactivation of IDE by NEM / H2O2 / GSNO (in words),[8],potently inactivate the catalytic activity of IDE
same,inhibition by GSNO / H2O2 (in words),[9],inactivated
same,sensitivity to GSNO / H2O2 relative to IDE-WT (in words),[9],more sensitive
insulin: large peptide substrate of IDE,Km,[10],0.1 µM
same,Km of insulin relative to kinins,[11],about five orders of magnitude lower
"CCN1C(=O)C=CC1=O [NEM, N-ethyl-maleimide]",susceptibility to alkylation (in words),[12],susceptible to alkylation
same,NEM sensitivity (in words),"[13]; IDE-CF, 0.2–1 mM NEM, 1 h, substrate V",relatively resistant to the inactivation by NEM
same,NEM sensitivity (in words),[14],partial resistance
same,NEM sensitivity (in words),[15],susceptibility to NEM
same,NEM sensitivity (in words),[16],does not induce a similar inhibition effect as Cys 819
same,NEM sensitivity (in words),"[6]; IDE-CF-4, 0.2 and 1 mM NEM, 1 h, substrate V, partially purified",significantly reduced sensitivity
same,NEM sensitivity (in words),[17],susceptibility to NEM
same,NEM sensitivity (in words),[18],partial resistance
same,mode of inhibition,[19]; S-alkylation of IDE by NEM,non-competitive
same,inhibition by sulfhydryl-directed reactions (in words),[19],sensitive to inhibition
same,NEM sensitivity (in words),[20],less sensitive to NEM inactivation
same,NEM sensitivity (in words),"[7]; fully purified, 0.15, 0.6 and 2.5 mM NEM, 1 h, substrate V",only IDE-CF-A819C is highly sensitive to the NEM inactivation
same,NEM sensitivity (in words),[7]; partially purified (preliminary),sensitivity to NEM
same,loss of activity,"[8]; IDE-WT, 1 mM NEM, 1 h, 25 °C, pH 7.2, 0.5 μM substrate V, control = buffer only",greater than 95%
same,NEM sensitivity (in words),"[8]; IDE-WT, 0.2–1 mM NEM, 1 h, substrate V",highly sensitive to inhibition by NEM
same,inactivation of IDE by NEM / H2O2 / GSNO (in words),[8],potently inactivate the catalytic activity of IDE
same,NEM sensitivity (in words),[21],susceptibility to NEM
same,NEM sensitivity relative to IDE-WT (in words),"[9]; IDE-CF-123, 0.2 and 1 mM NEM, 1 h, substrate V",more sensitive
same,NEM sensitivity (in words),"[9]; IDE-CF-123, 0.2 and 1 mM NEM, 1 h, substrate V, partially purified",highly sensitive to NEM
"OO [H2O2, hydrogen peroxide]",inhibition by GSNO / H2O2 / NEM (in words),"[13]; cysteine-free IDE-CF, substrate V or FAβB, 1 mM reagent",insensitive to the inhibition
same,inactivation of rat IDE (in words),[22],inactivate rat IDE
same,inhibition by GSNO / H2O2 (in words),[6],relatively resistant
same,inhibition by sulfhydryl-directed reactions (in words),[19],sensitive to inhibition
same,sensitivity to GSNO / H2O2 relative to IDE-WT (in words),[7],more sensitive
same,inactivation of IDE by NEM / H2O2 / GSNO (in words),[8],potently inactivate the catalytic activity of IDE
same,inhibition by GSNO / H2O2 (in words),[9],inactivated
same,sensitivity to GSNO / H2O2 relative to IDE-WT (in words),[9],more sensitive
"7-methoxycoumarin-4-yl-acetyl-NPPGFSAFK-2,4-dinitrophenyl [substrate V]",specific activity,[23],4.5 ± 0.1 min⁻¹
same,specific activity,[24],3.0 ± 0.4 min⁻¹
kallidin,kcat for degradation by IDE,[1],"around 2,000 sec^−1"
same,major cleavage site,[2]; 30 min incubation,at the Pro/Phe site; also recorded: between Pro^8 and Phe^9
